Data set [1] in a line: Osmotic pressure analysis of osmosis draw solution by freezing point depression. The conditions noted are these: draw solution concentration 10 wt %. Format: physicochemical. As for the experimental part: Osmosis draw solutions having the various concentrations shown in the following Table 1 are prepared, and the osmotic pressure of the osmosis draw solution including the NIPAam oligomer prepared from Examples 1 to 4 is analyzed using the osmotic pressure measurer according to a freezing point depression.

A short description of data set [2]: Solubility change of 10 wt % osmosis draw solution on slow heating (LCST, separation temperature, reversibility). Format: physicochemical. An excerpt: Each osmosis draw solution including the compounds of Examples 1 to 5 and Comparative Examples 1 and 2 at a concentration of 10 wt % is slowly heated from room temperature, and the solubility change of the solution is observed according to the temperature. The term “lower critical solution temperature (LCST)” indicates the temperature at which the solution begins to suddenly turn opaque, and the term “separation temperature” indicates the temperature in which the solution begins to be precipitated.

The structures appear in SMILES notation.

`C=CC(=O)NC(C)C` [Comparative Example 1, N-isopropylacrylamide]: in data set [1], the “Osmotic pressure, Osmol concentration” value was 738 mOsmol/kg and the “Osmotic pressure, atm (equivalents)” value is 18 atm. For the same compound, the LCST in data set [2] (10 wt % solution heated from room temperature, temperature at which solution begins to suddenly turn opaque) was 36-37 °C. In addition, the Reversibility entry in data set [2] (@ 25° C.) is listed as “◯”.
